For twelve molecules, MIC and IC50 results are on record in patent publication US20260250312A1, “ANTIBACTERIAL COMPOUNDS ELIMINATING DORMANT BACTERIAL CELLS” (UNIVERSITÉ D'AIX-MARSEILLE, priority 2022, published 2026).

Experiment [1] concerns Staphylococcus aureus (ATCC25923). In words: Microdilution MIC assay (CLSI-based), S. aureus. The experiment is classed as cell-based. The conditions noted are these: Staphylococcus aureus, ATCC25923, 20 h, 20 hours incubation at 35-37° C., MHB; read-out: Minimum inhibitory concentration S. aureus ATCC25923. The procedure, abridged: (§1)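 Broth microdilution per modified CLSI guidelines in Mueller Hinton broth, 200 μL, inoculum ca. 5×10^5 CFU/mL; compounds tested as salts, twofold dilutions from 0.2 mg/mL, in triplicate. MIC determined from OD at 620 nm after incubation.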
In general terms: Broth dilution looks for growth in wells or tubes with falling amounts of substance.

The test system of experiment [2] is Enterococcus faecalis (ATCC29212). Put plainly: Microdilution MIC assay (CLSI-based), E. faecalis. It is filed as cell-based. To be noted: Enterococcus faecalis, ATCC29212, 20 h, 20 hours incubation at 35-37° C., MHB; read-out: Minimum inhibitory concentration E. faecalis ATCC29212. The gist of the method: as §1
The subject of experiment [3] is Escherichia coli (ATCC28922). Put plainly: Microdilution MIC assay (CLSI-based), E. coli. It is filed as cell-based. The conditions noted are these: Escherichia coli, ATCC28922, 20 h, 20 hours incubation at 35-37° C., MHB; read-out: Minimum inhibitory concentration E. coli ATCC28922. The procedure, abridged: as §1
In experiment [4] the test system is Pseudomonas aeruginosa (ATCC27853). Put plainly: Microdilution MIC assay (CLSI-based), P. aeruginosa. The experiment is classed as cell-based. The conditions noted are these: Pseudomonas aeruginosa, ATCC27853, 20 h, 20 hours incubation at 35-37° C., MHB; read-out: Minimum inhibitory concentration P. aeruginosa ATCC27853. The gist of the method: as §1
Another experiment has as its system CHO-K1 cells. Put plainly: WST1 cytotoxicity test. The experiment is classed as cell-based, Chinese hamster. To be noted: Cricetulus griseus, CHO-K1, 24 h, WST1, 24 hours at 37° C.; read-out: IC50 CHO. The procedure, abridged:
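CHO-K1 cells pre-cultured 24 h, then exposed 24 h at 37 °C to increasing compound concentrations. Viability read as WST-1 formazan absorbance at 450 nm after 20 min; dose-response fitted by nonlinear regression.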
(Formazan colour is commonly taken as a measure of viable cells.)

“And” between values parts separate entries of the source, which are not always exact repeats. Equal entries are not always repeated.

Regarding `COC(=O)[C@H](C)NC(=O)CC[C@@H](C)[C@H]1CCC2C3C(CC[C@@]21C)[C@@]1(C)CC[C@H](NCCCNCCCCNCCCN)C[C@H]1C[C@H]3O` (stereo partly drawn) [Compound S038, methyl ((4R)-4-((3S,5S,7R,10S,13R,17R)-3-((3-((4-((3-aminopropyl)amino)butyl)amino)propyl)amino)-7-hydroxy-10,13-dimethylhexadecahydro-1H-cyclopenta[a]phenanthren-17-yl)pentanoyl)-L-alaninate], the MIC was 3.13 µM and 2 µg/mL in experiment [1]; 6.25 µM and 4 µg/mL in experiment [2]; 6.25 µM and 4 µg/mL in experiment [3]; 12.5 µM and 8 µg/mL in experiment [4]. In the experiment on CHO-K1 cells, the IC50 (usually the midpoint of a concentration-inhibition curve) was 45 µM and 29.8 µg/mL.

As to `COC(=O)[C@@H](NC(=O)CC[C@@H](C)[C@H]1CCC2C3C(CC[C@@]21C)[C@@]1(C)CC[C@H](NCCCCN)C[C@H]1C[C@H]3O)C(C)C` (stereo partly drawn) [Compound S043, methyl ((4R)-4-((3S,5S,7R,10S,13R,17R)-3-((4-aminobutyl)amino)-7-hydroxy-10,13-dimethylhexadecahydro-1H-cyclopenta[a]phenanthren-17-yl)pentanoyl)-L-valinate], the MIC in experiment [1] is 25 µM and 16 µg/mL; in experiment [2] it was 25 µM and 16 µg/mL; in experiment [3], 50 µM and 32 µg/mL; in experiment [4], 200 µM and 128 µg/mL. In the experiment with CHO-K1 cells, the IC50 is 107 µM and 61.9 µg/mL.

Regarding `COC(=O)[C@H](Cc1ccccc1)NC(=O)CC[C@@H](C)[C@H]1CCC2C3C(CC[C@@]21C)[C@@]1(C)CC[C@H](NCCCN(C)CCCN)C[C@H]1C[C@H]3O` (stereo partly drawn) [Compound S031, methyl ((4R)-4-((3S,5S,7R,10S,13R,17R)-3-((3-((3-aminopropyl)(methyl)amino)propyl)amino)-7-hydroxy-10,13-dimethylhexadecahydro-1H-cyclopenta[a]phenanthren-17-yl)pentanoyl)-L-phenylalaninate], the MIC in experiment [1] is 6.25 µM and 4 µg/mL; in experiment [2] it was 25 µM and 16 µg/mL; in experiment [3], 12.5 µM and 8 µg/mL; in experiment [4], 25 µM and 16 µg/mL. For the same molecule, the IC50 with CHO-K1 cells was 84.5 µM and 57.6 µg/mL.

As to `COC(=O)CNC(=O)CC[C@@H](C)[C@H]1CCC2C3C(CC[C@@]21C)[C@@]1(C)CC[C@H](NCCCN(CCCN)CCCN)C[C@H]1C[C@H]3O` (stereo partly drawn) [Compound S005, methyl ((4R)-4-((3S,5S,7R,10S,13R,17R)-3-((3-(bis(3-aminopropyl)amino)propyl)amino)-7-hydroxy-10,13-dimethylhexadecahydro-1H-cyclopenta[a]phenanthren-17-yl)pentanoyl)glycinate], the MIC in experiment [1] was 12.5 µM and 8 µg/mL; in experiment [2] it was 200 µM and 128 µg/mL; in experiment [3] it was > 200 µM and > 126 µg/mL; in experiment [4], > 200 µM and > 126 µg/mL. The IC50 in the experiment on CHO-K1 cells is > 100 µM and > 64 µg/mL.

For `COC(=O)[C@H](NC(=O)CC[C@@H](C)[C@H]1CCC2C3CC[C@@H]4C[C@@H](NCCCN5CCN(CCCN)CC5)CC[C@]4(C)C3C[C@H](O)[C@@]21C)C(C)C` (stereo partly drawn) [Compound S053, methyl ((4R)-4-((3S,5R,10S,12S,13R,17R)-3-((3-(4-(3-aminopropyl)piperazin-1-yl)propyl)amino)-12-hydroxy-10,13-dimethylhexadecahydro-1H-cyclopenta[a]phenanthren-17-yl)pentanoyl)-D-valinate], the MIC in experiment [1] was 12.5 µM and 8 µg/mL; in experiment [2] it was 200 µM and 128 µg/mL; in experiment [3], 100 µM and 64 µg/mL; in experiment [4] it was > 200 µM and > 128 µg/mL. Also, the IC50 in the experiment with CHO-K1 cells was > 100 µM and > 68 µg/mL.

With `COC(=O)[C@H](NC(=O)CC[C@@H](C)[C@H]1CCC2C3C(CC[C@@]21C)[C@@]1(C)CC[C@H](NCCNCCN)C[C@H]1C[C@H]3O)C(C)C` (stereo partly drawn) [Compound S020, methyl ((4R)-4-((3S,5S,7R,10S,13R,17R)-3-((2-((2-aminoethyl)amino)ethyl)amino)-7-hydroxy-10,13-dimethylhexadecahydro-1H-cyclopenta[a]phenanthren-17-yl)pentanoyl)-D-valinate], the MIC in experiment [1] is 100 µM and 64 µg/mL; in experiment [2], > 200 µM and > 128 µg/mL; in experiment [3] it was 100 µM and 64 µg/mL; in experiment [4] it was > 200 µM and > 128 µg/mL. Also, the IC50 in the experiment with CHO-K1 cells is 17.2 µM and 10.2 µg/mL.

Consider `COC(=O)[C@@H](NC(=O)CC[C@@H](C)[C@H]1CC[C@H]2[C@@H]3[C@H](O)C[C@@H]4CC(NCCCN(CCCN)CCCN)CC[C@]4(C)[C@H]3CC[C@]12C)C(C)C` (mixture of isomers) [Compound S003, methyl ((4R)-4-((3S,5S,7R,10S,13R,17R)-3-((3-(bis(3-aminopropyl)amino)propyl)amino)-7-hydroxy-10,13-dimethylhexadecahydro-1H-cyclopenta[a]phenanthren-17-yl)pentanoyl)valinate], for which the MIC is 6.25 µM and 4 µg/mL in experiment [1]; 50 µM and 32 µg/mL in experiment [2]; 100 µM and 64 µg/mL in experiment [3]; 100 µM and 64 µg/mL in experiment [4]. The IC50 with CHO-K1 cells was 165 µM and 111 µg/mL.

As to `COC(=O)[C@H](NC(=O)CC[C@@H](C)[C@H]1CCC2C3CC[C@@H]4C[C@@H](NCCCN(CCCN)CCCN)CC[C@]4(C)C3C[C@H](O)[C@@]21C)C(C)C` (stereo partly drawn) [Compound S054, methyl ((4R)-4-((3S,5R,10S,12S,13R,17R)-3-((3-(bis(3-aminopropyl)amino)propyl)amino)-12-hydroxy-10,13-dimethylhexadecahydro-1H-cyclopenta[a]phenanthren-17-yl)pentanoyl)-D-valinate], the MIC in experiment [1] is 6.25 µM and 4 µg/mL; in experiment [2], 100 µM and 64 µg/mL; in experiment [3] it was 50 µM and 32 µg/mL; in experiment [4], 100 µM and 64 µg/mL. Moreover, the IC50 in the experiment with CHO-K1 cells was > 100 µM and > 67 µg/mL.

As to `COC(=O)[C@H](Cc1ccccc1)NC(=O)CC[C@@H](C)[C@H]1CCC2C3C(CC[C@@]21C)[C@@]1(C)CC[C@H](NCCCN2CCN(CCCN)CC2)C[C@H]1C[C@H]3O` (stereo partly drawn) [Compound S025, methyl ((4R)-4-((3S,5S,7R,10S,13R,17R)-3-((3-(4-(3-aminopropyl)piperazin-1-yl)propyl)amino)-7-hydroxy-10,13-dimethylhexadecahydro-1H-cyclopenta[a]phenanthren-17-yl)pentanoyl)-L-phenylalaninate], the MIC is 25 µM and 16 µg/mL in experiment [1]; 25 µM and 16 µg/mL in experiment [2]; 25 µM and 16 µg/mL in experiment [3]; 100 µM and 64 µg/mL in experiment [4]. The IC50 with CHO-K1 cells was 3.7 µM and 2.72 µg/mL.

As for `COC(=O)[C@H](NC(=O)CC[C@@H](C)[C@H]1CCC2C3C(CC[C@@]21C)[C@@]1(C)CC[C@H](NCCCNCCCNCCCN)C[C@H]1C[C@H]3O)C(C)C` (stereo partly drawn) [Compound S011, methyl ((4R)-4-((3S,5S,7R,10S,13R,17R)-3-((3-((3-((3-aminopropyl)amino)propyl)amino)propyl)amino)-7-hydroxy-10,13-dimethylhexadecahydro-1H-cyclopenta[a]phenanthren-17-yl)pentanoyl)-D-valinate], the MIC in experiment [1] was 12.5 µM and 8 µg/mL; in experiment [2], 25 µM and 16 µg/mL; in experiment [3] it was 12.5 µM and 8 µg/mL; in experiment [4] it was 25 µM and 16 µg/mL. Also, in the experiment with CHO-K1 cells, the IC50 is 1.17 µM and 0.79 µg/mL.

For `COC(=O)[C@@H](NC(=O)CC[C@@H](C)[C@H]1CC[C@H]2[C@@H]3[C@H](O)C[C@@H]4CC(NCCCN5CCN(CCCN)CC5)CC[C@]4(C)[C@H]3CC[C@]12C)C(C)C` (mixture of isomers) [Compound S002, methyl ((4R)-4-((3S,5S,7R,10S,13R,17R)-3-((3-(4-(3-aminopropyl)piperazin-1-yl)propyl)amino)-7-hydroxy-10,13-dimethylhexadecahydro-1H-cyclopenta[a]phenanthren-17-yl)pentanoyl)valinate], the MIC in experiment [1] was 25 µM and 16 µg/mL; in experiment [2] it was 50 µM and 32 µg/mL; in experiment [3], 100 µM and 64 µg/mL; in experiment [4] it was 100 µM and 64 µg/mL. Besides, the IC50 in the experiment with CHO-K1 cells was 93.3 µM and 64.2 µg/mL.

Regarding `COC(=O)[C@H](NC(=O)CC[C@@H](C)[C@H]1CCC2C3C(C[C@H](O)[C@@]21C)[C@@]1(C)CC[C@H](NCCCNCCCCNCCCN)C[C@H]1C[C@H]3O)C(C)C` (stereo partly drawn) [Compound S058, methyl ((4R)-4-((3S,5S,7R,10S,12S,13R,17R)-3-((3-((4-((3-aminopropyl)amino)butyl)amino)propyl)amino)-7,12-dihydroxy-10,13-dimethylhexadecahydro-1H-cyclopenta[a]phenanthren-17-yl)pentanoyl)-D-valinate], the MIC in experiment [1] was 12.5 µM and 8 µg/mL; in experiment [2] it was 100 µM and 64 µg/mL; in experiment [3], 100 µM and 64 µg/mL; in experiment [4], 50 µM and 32 µg/mL. Also, in the experiment on CHO-K1 cells, the IC50 is 6.55 µM and 4.63 µg/mL.
